Values of other authors in paper PMC9620260 (Journal of Medicinal Chemistry, 2022).
pIC50: −log10 of the molar value. Read-outs that look alike come from different tables or passages of the source.

Legend:
[1] = target: T. cruzi trans-sialidase (TcTS)
[2] = system: C. perfringens sialidase (CpNanI)
Neu1 = details: selective for Neu1 over the other isoenzymes
[3] = not given; remark: listed apart in the source

Structure (SMILES): CC(=O)N[C@H]1[C@H]([C@H](O)[C@H](O)CO)O[C@@](Oc2ccc([N+](=O)[O-])cc2C(F)F)(C(=O)O)C[C@@H]1O [2-difluoromethyl-4-nitrophenyl glycoside of αNeu5Ac]
- pIC50 ([1]; irreversible inhibitor of trans-sialidase): 3.22
- T. cruzi infection of mammalian cells (T. cruzi): prevents T. cruzi infection of mammalian cells

Structure (SMILES): O=C(O)c1cc(O)c2c(c1)C(=O)c1cc(O)c(Cl)c(O)c1C2=O [6-chloro-9,10-dihydro-4,5,7-trihydroxy-9,10-dioxo-2-anthracenecarboxylic acid]
- pIC50 ([1]; specific TcTS inhibitor): 6.24

Structure (SMILES): COc1ccc(C=CC(=O)C=C(O)C=Cc2ccc(O)c(O)c2)cc1O [7-(3,4-dihydroxyphenyl)-5-hydroxy-1-(3-hydroxy-4-methoxyphenyl) hepta-1,4,6-trien-3-one]
- inhibition of C. perfringens sialidase [2]: inhibit
- inhibition of S. pneumoniae NanA (SpNanA): inhibit
- inhibition of V. cholerae sialidase (V. cholerae sialidase): inhibit

Structure (SMILES): CC(=O)NC1C(O)C(F)C(F)(C(=O)O)OC1C(O)C(O)CN=[N+]=[N-] (stereo not shown) [9-azido-modified 2,3-diF-Neu5Ac]
- inhibitory activity against bacterial sialidases (bacterial sialidase; effect of modification of 2,3-difluoro-Sia): increased inhibitory activity

Structure (SMILES): CCCCC(=O)NC[C@@H](O)[C@@H](O)[C@@H]1OC(C(=O)O)=C[C@H](O)[C@H]1NC(C)=O [C-9 Pentylamido derivative of DANA]
- IC50 against Neu1 (Neu1): micromolar

Structure (SMILES): CC(=O)N[C@H]1[C@H]([C@H](O)[C@H](O)CO)OC(C(=O)O)=C[C@@H]1O [DANA, 2-deoxy-2,3-dehydro-N-acetylneuraminic acid]
- IC50 against TcTS [1]: several hundred
- Ki values (influenza viral NA; influenza viral neuraminidases): micromolar range

Structure (SMILES): COc1cc(C)c(C(=O)Oc2cc(C)c(C(=O)O)c(O)c2)c(O)c1 [Evernic acid]
- inhibition against bacterial sialidase (bacterial sialidase): dose-dependent inhibition

Structure (SMILES): CC(=O)N[C@H]1[C@H]([C@H](O)[C@H](O)CO)OC(O)(C(=O)O)C[C@@H]1O (stereo partly shown) [Neu5Ac, N-acetylneuraminic acid]
- inhibition of sialidases (sialidases): weak inhibitor

Structure (SMILES): COC(=O)C1(OC(C)=O)OC([C@H](OC(C)=O)[C@@H](COC(C)=O)OC(C)=O)C(NC(C)=O)C(OC(C)=O)C1F (stereo partly shown) [P-3Fax-Neu5Ac]
- inhibition of the sialyltransferases (sialyltransferases): cell-permeable specific inhibitor
- nephrotoxicity: well-known nephrotoxicity

Structure (SMILES): COc1cc2oc(-c3ccc(O)cc3O)c(CC=C(C)C)c(=O)c2c(O)c1/C=C/C(C)C [artocarpin]
- inhibitory activity against S. pneumoniae sialidases (S. pneumoniae sialidases): inhibitory activity
- inhibitory activity against influenza sialidase (influenza viral NA): inhibitory activity

Structure (SMILES): O=C(CCc1ccccc1)C[C@@H]1C[C@@H](c2ccccc2)c2c(cc(/C=C/c3ccccc3)oc2=O)O1 [katsumadain A]
- inhibitory activity against S. pneumoniae sialidases (S. pneumoniae sialidases): inhibitory activity
- inhibitory activity against influenza sialidase (influenza viral NA): inhibitory activity

Structure (SMILES): CCOC(=O)C1=C[C@@H](OC(CC)CC)[C@H](NC(C)=O)[C@@H](N)C1 [oseltamivir]
- side effects [3]: neuropsychiatric side effects
